Source: patent US7632506B2, “Identification of new NY-ESO-1 epitopes recognized by CD4+ T-cells” (Ludwig Institute for Cancer Research, priority 2005, dated 2009)

System: CD4+ T cells
Assay: IFN-γ ELISPOT of CD4+ T cells presensitized with overlapping NY-ESO-1 18 mer peptides
Type: cell-based, human
Settings: for Patient T cells 1 / Patient T cells 2 / Patient T cells 3: IFN-γ ELISPOT; for Patient T cells 1: day 12, CD4+ T cells of patient 1, autologous peptide pulsed EBV-B cells as targets; for Patient T cells 2: day 12, CD4+ T cells of patient 2, autologous peptide pulsed EBV-B cells as targets; for Patient T cells 3: day 12, CD4+ T cells of patient 3, autologous peptide pulsed EBV-B cells as targets; for patients whose CD4+ T cells recognized the peptide: three patients tested
Experimental: Peripheral blood mono-nuclear cells (“PBMCs”) were separated from heparinized blood via Ficoll density gradient separation, using standard, art recognized techniques. Once this was done, the CD4^+ and CD8^+ T cells were separated from each other using magnetic cell sorting techniques which are well known to the art, producing CD4^+, CD8^+, and CD4^−/CD8^− cell populations.
A series of 18 mer peptides were prepared from the amino acid sequence of NY-ESO-1 as set forth in, e.g., U.S. Pat. No. 5,804,381, incorporated by reference. The peptides were designed to cover the entire sequence of NY-ESO-1, and to provide overlap.
The peptides were then individually pulsed to antigen presenting cells (“APCs”). These were CD4^−/CD8^− PBMCs taken from the same subjects who had provided the CD4^+ and CD8^+ cells. These APCs were irradiated with 3000 rads, and then pulsed with one of the peptides, at a concentration of 10 μg/ml, for 1 hour, in serum free medium. These APCs were then washed, and added to the CD4^+ cells. In the pulsing experiments, the peptides were solubilized in DMSO (100%) and then diluted with PBS to a final concentration of 10% DMSO. The CD4^+ cells had been cultured in a medium of L-arginine (242 mg/l), L-asparagene (50 mg/l), L-glutamine (300 mg/l), penicillin (10 IU/ml), streptomycin (100 μg/ml), 1% non-essential amino acids, 10% HS, and 10 ng/ml of recombinant human IL-2.
The CD4^+ T cells were restimulated weekly with 1 μg/ml of the peptide being used. On day 12, each CD4^+ culture was assayed for NY-ESO-1 peptide recognition, using the ELISPOT assay of lager, et al., Proc. Natl. Acad. Sci. USA, 97(9):4760-4765 (2000), incorporated by reference. To elaborate on this procedure, flat-bottomed, 96-well nitrocellulose plates were coated with 5 μg/ml of anti-interferon-gamma antibody and incubated overnight at 4° C. After washing with PBS, plates were blocked with 10% human serum (HS) for 1 hour at 37° C. Depending on the effector:target ratio used, various numbers of presensitized CD4^+ T-cells were added to each well along with 5×10^4 autologous peptide pulsed EBV transfected B cells (“EBV-B cells”) serving as target cells and incubated for 16 hours at 37° C. in TCM without IL-2. Plates were then washed extensively (6 times with a solution of 0.05% Tween 20/PBS), and biotinylated anti-interferon-gamma detection antibody was added at a concentration of 0.5 μg/ml. After incubation for 2 h at 37° C., plates were washed and incubated with ABC-AP Vectastain for 1 hour. Plates were washed again and developed with substrate (BCIP/NPT) until blue spots were visible. The number of blue spots/well represented the proportion of NY-ESO-1 specific CD4^+ T-cells/well was finally counted under the microscope.
The EBV-B-cells were generated from each patients' PBMC following standard methods and maintained in RPMI 1640 medium supplemented with 10 mM Hepes buffer, L-arginine (242 mg/l), L-asparagine (50mg/l), L-glutamine (300 mg/l), penicillin (10 IU/ml), streptomycin (100 μg/ml), 1% non-essential amino acids, and 10% FCS. […] PBMC's or EBV-B-cells were molecularly typed for HLA expression using standard procedures.

Substance | Patient T cells 1 | Patient T cells 2 | Patient T cells 3 | patients whose CD4+ T cells recognized the peptide
p97-114: synthetic 18 mer peptide, amino acids 97-114 of NY-ESO-1 (ATPMEAELARRSLAQDAP; UniProt P78358 97-114, looked up, fragment) | − (− indicates <50 spots) | + (+ indicates >50 spots (all + scores indicated were >100 spots)) | − (− indicates <50 spots) | one patient
P31-48: synthetic 18 mer peptide, amino acids 31-48 of NY-ESO-1 (AGGPGEAGATGGRGPRGA; UniProt P78358 31-48, looked up, fragment) [Peptide P31-48] | − (− indicates <50 spots) | − (− indicates <50 spots) | − (− indicates <50 spots) | 
P37-54: synthetic 18 mer peptide, amino acids 37-54 of NY-ESO-1 (AGATGGRGPRGAGAARAS; UniProt P78358 37-54, looked up, fragment) [Peptide P37-54] | − (− indicates <50 spots) | − (− indicates <50 spots) | − (− indicates <50 spots) | 
P13-30: synthetic 18 mer peptide, amino acids 13-30 of NY-ESO-1 (GDADGPGGPGIPDGPGGN; UniProt P78358 13-30, looked up, fragment) [Peptide P13-30] | − (− indicates <50 spots) | − (− indicates <50 spots) | − (− indicates <50 spots) | 
P79-96: synthetic 18 mer peptide, amino acids 79-96 of NY-ESO-1 (GARGPESRLLEFYLAMPF; UniProt P78358 79-96, looked up, fragment) [Peptide P79-96] | − (− indicates <50 spots) | − (− indicates <50 spots) | − (− indicates <50 spots) | 
p7-24: synthetic 18 mer peptide, amino acids 7-24 of NY-ESO-1 (GTGGSTGDADGPGGPGIP; UniProt P78358 7-24, looked up, fragment) | − (− indicates <50 spots) | − (− indicates <50 spots) | − (− indicates <50 spots) | 
p163-180: synthetic 18 mer peptide, amino acids 163-180 of NY-ESO-1 (TQCFLPVFLAQPPSGQRR; UniProt P78358 163-180, looked up, fragment) | − (− indicates <50 spots) | − (− indicates <50 spots) | − (− indicates <50 spots) | 
p145-162: synthetic 18 mer peptide, amino acids 145-162 of NY-ESO-1 (LQLSISSCLQQLSLLMWI; UniProt P78358 145-162, looked up, fragment) | − (− indicates <50 spots) | − (− indicates <50 spots) | − (− indicates <50 spots) | 
p103-120: synthetic 18 mer peptide, amino acids 103-120 of NY-ESO-1 (ELARRSLAQDAPPLPVPG; UniProt P78358 103-120, looked up, fragment) | − (− indicates <50 spots) | + (+ indicates >50 spots (all + scores indicated were >100 spots)) | − (− indicates <50 spots) | one patient
P43-60: synthetic 18 mer peptide, amino acids 43-60 of NY-ESO-1 (RGPRGAGAARASGPGGGA; UniProt P78358 43-60, looked up, fragment) [Peptide P43-60] | − (− indicates <50 spots) | + (+ indicates >50 spots (all + scores indicated were >100 spots)) | − (− indicates <50 spots) | one patient
p109-126: synthetic 18 mer peptide, amino acids 109-126 of NY-ESO-1 (LAQDAPPLPVPGVLLKEF; UniProt P78358 109-126, looked up, fragment) | − (− indicates <50 spots) | − (− indicates <50 spots) | − (− indicates <50 spots) | 
p139-156: synthetic 18 mer peptide, amino acids 139-156 of NY-ESO-1 (AADHRQLQLSISSCLQQL; UniProt P78358 139-156, looked up, fragment) | − (− indicates <50 spots) | − (− indicates <50 spots) | − (− indicates <50 spots) | 
P73-90: synthetic 18 mer peptide, amino acids 73-90 of NY-ESO-1 (NGCCRCGARGPESRLLEF; UniProt P78358 73-90, looked up, fragment) [Peptide P73-90] | − (− indicates <50 spots) | − (− indicates <50 spots) | − (− indicates <50 spots) | 
P25-42: synthetic 18 mer peptide, amino acids 25-42 of NY-ESO-1 (DGPGGNAGGPGEAGATGG; UniProt P78358 25-42, looked up, fragment) [Peptide P25-42] | − (− indicates <50 spots) | − (− indicates <50 spots) | − (− indicates <50 spots) | 
p115-132: synthetic 18 mer peptide, amino acids 115-132 of NY-ESO-1 (PLPVPGVLLKEFTVSGNI; UniProt P78358 115-132, looked up, fragment) | − (− indicates <50 spots) | − (− indicates <50 spots) | − (− indicates <50 spots) | 
p91-108: synthetic 18 mer peptide, amino acids 91-108 of NY-ESO-1 (YLAMPFATPMEAELARRS; UniProt P78358 91-108, looked up, fragment) | − (− indicates <50 spots) | − (− indicates <50 spots) | − (− indicates <50 spots) | 
P19-36: synthetic 18 mer peptide, amino acids 19-36 of NY-ESO-1 (GGPGIPDGPGGNAGGPGE; UniProt P78358 19-36, looked up, fragment) [Peptide P19-36] | − (− indicates <50 spots) | − (− indicates <50 spots) | − (− indicates <50 spots) | 
p85-102: synthetic 18 mer peptide, amino acids 85-102 of NY-ESO-1 (SRLLEFYLAMPFATPMEA; UniProt P78358 85-102, looked up, fragment) | − (− indicates <50 spots) | − (− indicates <50 spots) | − (− indicates <50 spots) | 
p157-174: synthetic 18 mer peptide, amino acids 157-174 of NY-ESO-1 (SLLMWITQCFLPVFLAQP; UniProt P78358 157-174, looked up, fragment) | − (− indicates <50 spots) | − (− indicates <50 spots) | − (− indicates <50 spots) | 
p151-168: synthetic 18 mer peptide, amino acids 151-168 of NY-ESO-1 (SCLQQLSLLMWITQCFLP; UniProt P78358 151-168, looked up, fragment) | − (− indicates <50 spots) | − (− indicates <50 spots) | − (− indicates <50 spots) | 
p1-18: synthetic 18 mer peptide, amino acids 1-18 of NY-ESO-1 (MQAEGRGTGGSTGDADGP; UniProt P78358 1-18, looked up, fragment) | − (− indicates <50 spots) | − (− indicates <50 spots) | − (− indicates <50 spots) | 
